Values quoted from earlier work, collected in patent US20030113384A1, “Antimicrobial compositions for mastitis control” (Ecolab Inc., priority 1999, published 2003).

pKa: 4.4
SMILES: CCCCCCC(=O)O [heptanoic acid]
